# What was measured:
# Type in all cases: cell-based
# P. aeruginosa MP-3 = test: Broth dilution MIC determination (CLSI), P. aeruginosa MP-3; settings: Pseudomonas aeruginosa, MP3; strain MP-3, broth dilution
# S. aureus MP-12 = test: Broth dilution MIC determination (CLSI), S. aureus MP-12; settings: Staphylococcus aureus, MP12; strain MP-12, broth dilution
# K. pneumoniae MP-648 = test: Broth dilution MIC determination (CLSI), K. pneumoniae MP-648; settings: Klebsiella pneumoniae, MP648; strain MP-648, broth dilution
# K. pneumoniae MP-546 = test: Broth dilution MIC determination (CLSI), K. pneumoniae MP-546; settings: Klebsiella pneumoniae, MP546; strain MP-546, broth dilution
# E. coli MP-4 = test: Broth dilution MIC determination (CLSI), E. coli MP-4; settings: Escherichia coli, MP4; strain MP-4, broth dilution; read-out: MIC E. coli MP-4
# A. baumannii MP-15 = test: Broth dilution MIC determination (CLSI), A. baumannii MP-15; settings: Acinetobacter baumannii, MP15; strain MP-15, broth dilution; read-out: MIC A. baumanii MP-15
SMILES,MIC (P. aeruginosa MP-3) [µg/mL],MIC (S. aureus MP-12) [µg/mL],MIC (K. pneumoniae MP-648) [µg/mL],MIC (K. pneumoniae MP-546) [µg/mL],MIC (E. coli MP-4) [µg/mL],MIC (A. baumannii MP-15) [µg/mL]
"CO[C@]1(C)C[C@@H](C)CN(C)[C@H]([C@H]2C[C@@H](N(C)CC3CC3)C2)COC(=O)C(C)(C)C(=O)[C@H](C)[C@H]1O[C@@H]1O[C@H](C)C[C@H](N(C)C)[C@H]1O [Compound 18, (3R,6R,8R,9R,10R)-3-((1s,3S)-3-((cyclopropylmethyl)(methyl)amino)cyclobutyl)-9-(((2S,3R,4S,6R)-4-(dimethylamino)-3-hydroxy-6-methyltetrahydro-2H-pyran-2-yl)oxy)-8-methoxy-4,6,8,10,12,12-hexamethyl-1-oxa-4-azacyclotridecane-11,13-dione]",> 32,> 32,4 to 32,4 to 32,< 4,> 32
"CO[C@]1(C)C[C@@H](C)CN(C)[C@H](C2CN(C(=O)[C@@H]3CCNC3)C2)COC(=O)C(C)(C)C(=O)[C@H](C)[C@H]1O[C@@H]1O[C@H](C)C[C@H](N(C)C)[C@H]1O [Compound 22, (3R,6R,8R,9R,10R)-9-(((2S,3R,4S,6R)-4-(dimethylamino)-3-hydroxy-6-methyltetrahydro-2H-pyran-2-yl)oxy)-8-methoxy-4,6,8,10,12,12-hexamethyl-3-(1-((R)-pyrrolidine-3-carbonyl)azetidin-3-yl)-1-oxa-4-azacyclotridecane-11,13-dione]",> 32,4 to 32,> 32,> 32,4 to 32,> 32
"CO[C@]1(C)C[C@@H](C)CN(C)[C@H]([C@H]2C[C@H](N(C)CC3CC3)C2)COC(=O)C(C)(C)C(=O)[C@H](C)[C@H]1O[C@@H]1O[C@H](C)C[C@H](N(C)C)[C@H]1O [Compound 24, (3R,6R,8R,9R,10R)-3-((1r,3R)-3-((cyclopropylmethyl)(methyl)amino)cyclobutyl)-9-(((2S,3R,4S,6R)-4-(dimethylamino)-3-hydroxy-6-methyltetrahydro-2H-pyran-2-yl)oxy)-8-methoxy-4,6,8,10,12,12-hexamethyl-1-oxa-4-azacyclotridecane-11,13-dione]",> 32,4 to 32,< 4,< 4,< 4,> 32
"CO[C@]1(C)C[C@@H](C)CN(C)[C@H](C2CN(C(=O)CC(C)(C)CN(C)CC3CC3)C2)COC(=O)C(C)(C)C(=O)[C@H](C)[C@H]1O[C@@H]1O[C@H](C)C[C@H](N(C)C)[C@H]1O [Compound 25, (3R,6R,8R,9R,10R)-3-(1-(4-((cyclopropylmethyl)(methyl)amino)-3,3-dimethylbutanoyl)azetidin-3-yl)-9-(((2S,3R,4S,6R)-4-(dimethylamino)-3-hydroxy-6-methyltetrahydro-2H-pyran-2-yl)oxy)-8-methoxy-4,6,8,10,12,12-hexamethyl-1-oxa-4-azacyclotridecane-11,13-dione]",> 32,4 to 32,4 to 32,< 4,< 4,> 32
"CO[C@]1(C)C[C@@H](C)CN(C)[C@H]([C@H]2C[C@H](N(C)C)C2)COC(=O)C(C)(C)C(=O)[C@H](C)[C@H]1O[C@@H]1O[C@H](C)C[C@H](N(C)C)[C@H]1O [Compound 30, (3R,6R,8R,9R,10R)-9-(((2S,3R,4S,6R)-4-(dimethylamino)-3-hydroxy-6-methyltetrahydro-2H-pyran-2-yl)oxy)-3-((1r,3R)-3-(dimethylamino)cyclobutyl)-8-methoxy-4,6,8,10,12,12-hexamethyl-1-oxa-4-azacyclotridecane-11,13-dione]",> 32,4 to 32,< 4,< 4,< 4,> 32
"CO[C@]1(C)C[C@@H](C)CN(C)[C@H]([C@H]2C[C@@H](N(C)CC3CCCO3)C2)COC(=O)C(C)(C)C(=O)[C@H](C)[C@H]1O[C@@H]1O[C@H](C)C[C@H](N(C)C)[C@H]1O (stereo partly drawn) [Compound 31, (3R,6R,8R,9R,10R)-9-(((2S,3R,4S,6R)-4-(dimethylamino)-3-hydroxy-6-methyltetrahydro-2H-pyran-2-yl)oxy)-8-methoxy-4,6,8,10,12,12-hexamethyl-3-((1s,3S)-3-(methyl((tetrahydrofuran-2-yl)methyl)amino)cyclobutyl)-1-oxa-4-azacyclotridecane-11,13-dione]",> 32,> 32,4 to 32,< 4,< 4,> 32
"COCC(C)N1CC([C@@H]2COC(=O)C(C)(C)C(=O)[C@H](C)[C@@H](O[C@@H]3O[C@H](C)C[C@H](N(C)C)[C@H]3O)[C@](C)(OC)C[C@@H](C)CN2C)C1 (stereo partly drawn) [Compound 32, (3R,6R,8R,9R,10R)-9-(((2S,3R,4S,6R)-4-(dimethylamino)-3-hydroxy-6-methyltetrahydro-2H-pyran-2-yl)oxy)-8-methoxy-3-(1-(1-methoxypropan-2-yl)azetidin-3-yl)-4,6,8,10,12,12-hexamethyl-1-oxa-4-azacyclotridecane-11,13-dione]",> 32,> 32,4 to 32,4 to 32,< 4,> 32
"CO[C@]1(C)C[C@@H](C)CN(C)[C@H](C2CN(CC3CC3)C2)COC(=O)C(C)(C)C(=O)[C@H](C)[C@H]1O[C@@H]1O[C@H](C)C[C@H](N(C)C)[C@H]1O [Compound 37, (3R,6R,8R,9R,10R)-3-(1-(cyclopropylmethyl)azetidin-3-yl)-9-(((2S,3R,4S,6R)-4-(dimethylamino)-3-hydroxy-6-methyltetrahydro-2H-pyran-2-yl)oxy)-8-methoxy-4,6,8,10,12,12-hexamethyl-1-oxa-4-azacyclotridecane-11,13-dione]",> 32,4 to 32,4 to 32,< 4,< 4,> 32
"CO[C@]1(C)C[C@@H](C)CN(C)[C@H](C2CN(C(=O)CNC(C)(C)C)C2)COC(=O)C(C)(C)C(=O)[C@H](C)[C@H]1O[C@@H]1O[C@H](C)C[C@H](N(C)C)[C@H]1O [Compound 41, (3R,6R,8R,9R,10R)-3-(1-(tert-butylglycyl)azetidin-3-yl)-9-(((2S,3R,4S,6R)-4-(dimethylamino)-3-hydroxy-6-methyltetrahydro-2H-pyran-2-yl)oxy)-8-methoxy-4,6,8,10,12,12-hexamethyl-1-oxa-4-azacyclotridecane-11,13-dione]",> 32,4 to 32,4 to 32,< 4,< 4,> 32
"CO[C@]1(C)C[C@@H](C)CN(C)[C@H](C2CN(Cc3cnn(C)c3)C2)COC(=O)C(C)(C)C(=O)[C@H](C)[C@H]1O[C@@H]1O[C@H](C)C[C@H](N(C)C)[C@H]1O [Compound 49, (3R,6R,8R,9R,10R)-9-(((2S,3R,4S,6R)-4-(dimethylamino)-3-hydroxy-6-methyltetrahydro-2H-pyran-2-yl)oxy)-8-methoxy-4,6,8,10,12,12-hexamethyl-3-(1-((1-methyl-1H-pyrazol-4-yl)methyl)azetidin-3-yl)-1-oxa-4-azacyclotridecane-11,13-dione]",> 32,4 to 32,4 to 32,< 4,< 4,> 32
"CO[C@]1(C)C[C@@H](C)CN(C)[C@H](C2CN(C(=O)CCN(C)C)C2)COC(=O)C(C)(C)C(=O)[C@H](C)[C@H]1O[C@@H]1O[C@H](C)C[C@H](N(C)C)[C@H]1O [Compound 50, (3R,6R,8R,9R,10R)-9-(((2S,3R,4S,6R)-4-(dimethylamino)-3-hydroxy-6-methyltetrahydro-2H-pyran-2-yl)oxy)-3-(1-(3-(dimethylamino)propanoyl)azetidin-3-yl)-8-methoxy-4,6,8,10,12,12-hexamethyl-1-oxa-4-azacyclotridecane-11,13-dione]",> 32,4 to 32,4 to 32,4 to 32,4 to 32,> 32
"CO[C@]1(C)C[C@@H](C)CN(C)[C@H](C2CN(CCC(C)C)C2)COC(=O)C(C)(C)C(=O)[C@H](C)[C@H]1O[C@@H]1O[C@H](C)C[C@H](N(C)C)[C@H]1O [Compound 51, (3R,6R,8R,9R,10R)-9-(((2S,3R,4S,6R)-4-(dimethylamino)-3-hydroxy-6-methyltetrahydro-2H-pyran-2-yl)oxy)-3-(1-isopentylazetidin-3-yl)-8-methoxy-4,6,8,10,12,12-hexamethyl-1-oxa-4-azacyclotridecane-11,13-dione]",> 32,4 to 32,4 to 32,< 4,< 4,4 to 32
"CO[C@]1(C)C[C@@H](C)CN(C)[C@H](C2CN(Cc3cnccn3)C2)COC(=O)C(C)(C)C(=O)[C@H](C)[C@H]1O[C@@H]1O[C@H](C)C[C@H](N(C)C)[C@H]1O [Compound 55, (3R,6R,8R,9R,10R)-9-(((2S,3R,4S,6R)-4-(dimethylamino)-3-hydroxy-6-methyltetrahydro-2H-pyran-2-yl)oxy)-8-methoxy-4,6,8,10,12,12-hexamethyl-3-(1-(pyrazin-2-ylmethyl)azetidin-3-yl)-1-oxa-4-azacyclotridecane-11,13-dione]",> 32,4 to 32,> 32,4 to 32,4 to 32,> 32
